According to patent publication US20150338423A1, “METHODS FOR DETERMINING RELATIVE BINDING ENERGY OF MONOMERS AND METHODS OF USING THE SAME” (SABIC Global Technologies B.V., priority 2014, published 2015):
Like-named read-outs stand apart in the source and are kept apart here. Values belong to the compound of their own block, whether it stands above or below them.

Target: T1, (Homo sapiens, UniProt P03372)
T1 sequence (P03372 1-595): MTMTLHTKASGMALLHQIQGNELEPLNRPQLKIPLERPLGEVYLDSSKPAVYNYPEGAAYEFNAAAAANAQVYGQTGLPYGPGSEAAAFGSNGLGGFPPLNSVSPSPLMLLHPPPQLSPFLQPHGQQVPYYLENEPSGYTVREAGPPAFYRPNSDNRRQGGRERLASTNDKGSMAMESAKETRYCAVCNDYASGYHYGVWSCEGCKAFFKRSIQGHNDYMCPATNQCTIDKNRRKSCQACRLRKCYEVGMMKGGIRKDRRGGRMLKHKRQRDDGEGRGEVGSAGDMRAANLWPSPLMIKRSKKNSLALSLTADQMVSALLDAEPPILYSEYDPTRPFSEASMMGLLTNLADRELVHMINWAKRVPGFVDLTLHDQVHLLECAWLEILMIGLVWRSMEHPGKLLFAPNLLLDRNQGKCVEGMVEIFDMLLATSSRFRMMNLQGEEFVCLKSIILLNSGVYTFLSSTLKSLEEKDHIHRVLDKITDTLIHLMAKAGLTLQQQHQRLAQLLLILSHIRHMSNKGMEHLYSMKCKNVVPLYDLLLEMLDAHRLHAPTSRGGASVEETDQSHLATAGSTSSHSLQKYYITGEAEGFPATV
Assay: in vitro competitive binding assay (radio-ligand displacement), estradiol binding activity

[1] = Table 1, unsubstituted reference monomers, displacement of radio-ligand from ERR-α, read-out: IC50

Method: The (IC50) of a particular substance can be determined using conventional competition binding assays. In this type of assay, a single concentration of radioligand (such as an agonist) is used in every assay tube. The ligand is used at a low concentration, usually at or below its Kd value. The level of specific binding of the radioligand is then determined in the presence of a range of concentrations of other competing non-radioactive compounds (usually antagonists), in order to measure the potency with which they compete for the binding of the radioligand. Competition curves can also be computer-fitted to a logistic function as described under direct fit.
IC50 binding concentrations for the alpha in vitro estradiol receptors were tested. Four separate sets of tests were run using a standard competitive binding assay. Samples were dissolved in either ethanol or DMSO. The various compounds were then tested at up to seven different concentrations for each test compound. Each of those tests was run in triplicate. Tests were conducted by displacement of a radio-ligand. For each set of tests a 17P-estradiol control sample was run to ensure proper binding of the natural hormone under the test conditions. Specifically, the IC50 values described herein were determined from in-vitro experiments of the compound binding to ERR-α.

SMILES: CC(C)(c1ccc(O)cc1)c1ccc(C(C)(C)c2ccc(O)cc2)cc1 [Reference ID 7, 4,4′-(1,4-phenylenebis(propane-2,2-diyl))diphenol]
IC50: 3.92 µM

SMILES: CCC(CC)(c1ccc(O)cc1)c1ccc(O)cc1 [Reference ID 9, 4,4′-(pentane-3,3-diyl)diphenol]
IC50 [1]: 0.0056 µM

SMILES: COC(=O)CCC(C)(c1ccc(O)cc1)c1ccc(O)cc1 [Reference ID 10, Methyl 4,4-bis(4-hydroxyphenyl)pentanoate]
IC50 [1]: 18.7 µM

Now from value to compound, other results behind:

IC50 (Table 2, substituted monomers, displacement of radio-ligand from ERR-α, read-out: IC50): > 250 µM
SMILES: COc1cc(C(C)(C)c2ccc(O)c(OC)c2)ccc1O [Example 1A, 4,4′-(propane-2,2-diyl)bis(2-methoxyphenol)]
estradiol binding activity (with the LBD cavity of ERR-α, in words): reduced or no detectable estradiol binding activity

IC50 [1]: 1.27 µM
SMILES: Cc1cc(C2(c3ccc(O)c(C)c3)CCCCC2)ccc1O [Reference ID 2, 4,4′-(cyclohexane-1,1-diyl)bis(2-methylphenol)]
